Source: ChEMBL document CHEMBL1131891, “Antiplatelet actions of aporphinoids from Formosan plants” (Bioorg Med Chem Lett, 1999)

Legend:
Type in all cases: functional
Oryctolagus cuniculus [1] = organism: Oryctolagus cuniculus; test: Inhibitory activity against platelet aggregation induced by arachidonic acid(AA) in washed rabbit platelet
Oryctolagus cuniculus [2] = organism: Oryctolagus cuniculus; test: Inhibitory activity against platelet aggregation induced by collagen in washed rabbit platelet
Oryctolagus cuniculus [3] = organism: Oryctolagus cuniculus; test: Effect on platelet aggregation induced by collagen in washed rabbit platelet
Oryctolagus cuniculus [4] = organism: Oryctolagus cuniculus; test: Effect on platelet aggregation induced by platelet activating factor(PAF) in washed rabbit platelet
Oryctolagus cuniculus [5] = organism: Oryctolagus cuniculus; test: Effect on platelet aggregation induced by adenosine 5'-diphosphate (ADP) in washed rabbit platelet
Oryctolagus cuniculus [6] = organism: Oryctolagus cuniculus; test: Effect on platelet aggregation induced by arachidonic acid(AA) in washed rabbit platelet
Oryctolagus cuniculus [7] = organism: Oryctolagus cuniculus; test: Inhibitory activity against platelet aggregation induced by platelet activating factor(PAF) in washed rabbit platelet

Compound | IC50 (Oryctolagus cuniculus [1]; read-out: IC50) [µM] | IC50 (Oryctolagus cuniculus [2]; read-out: IC50) [µM] | Aggregation (Oryctolagus cuniculus [3]) [%] | Aggregation (Oryctolagus cuniculus [4]) [%] | Aggregation (Oryctolagus cuniculus [5]) [%] | Aggregation (Oryctolagus cuniculus [6]) [%] | IC50 (Oryctolagus cuniculus [1]) [µM] | IC50 (Oryctolagus cuniculus [2]) [µM] | IC50 (Oryctolagus cuniculus [7]) [µM] | IC50 (Oryctolagus cuniculus [7]; read-out: IC50) [µM]
CN1CCc2cc3c(c4c2[C@H]1Cc1ccccc1-4)OCO3.Cl [REMERINE HYDROCHLORIDE] | 195 | 88.2 | 0 | 27.8 | 67.2 | 0 | – | – | – | –
CC(=O)Oc1ccccc1C(=O)O [ASPIRIN] | – | – | 87.4 | 90.4 | 77.9 | 0 | 164 | > 1000 | > 1000 | –
COc1ccc2c(c1OC)-c1c(OC)c(OC)cc3c1[C@H](C2)[N+](C)(C)CC3.[I-] [ISOCORYDINE METHIODIDE] | – | – | 87.9 | 85.6 | 90.2 | 71 | – | – | – | –
COc1c(O)ccc2c1-c1c(OC)c(O)cc3c1[C@H](C2)[N+](C)(C)CC3.[I-] | – | – | 89.8 | 85.5 | 90.7 | 83.7 | – | – | – | –
COc1cc2c(cc1OC)-c1c3c(cc4c1[C@H](C2)N(OC)CC4)OCO3 | – | – | 87.3 | 92.2 | 86.8 | 80.9 | – | – | – | –
COc1cc2c3c(c1OC)-c1ccccc1C[C@@H]3NCC2 | 211 | – | 0 | 30.6 | 77.1 | 0 | – | – | – | –
COc1cc2c3c(c1O)-c1ccccc1CC3N(C)CC2 (configuration not stated) | 171 | – | 0 | 51.7 | 86.3 | 0 | – | – | – | –
COc1ccc2c(c1OC)-c1c(OC)c(O)cc3c1[C@H](C2)N(C)CC3 | – | – | 83.5 | 78.6 | 89.4 | 86.5 | – | – | – | –
CC1=NN(c2ccc([N+](=O)[O-])cc2)C(=O)C1[N+](=O)[O-].COc1cc2c(cc1O)C[C@@H]1NCCc3cc(O)c(OC)c-2c31 | 149 | – | 4.6 | 79.3 | 92.1 | 0 | – | – | – | –
COc1cc2c(cc1OC)C(O)C1c3c(c(OC)c(OC)c(OC)c3-2)CCN1C (configuration not stated) | 70.4 | – | 0 | 0 | 34.5 | 0 | – | – | – | 11.8
COc1cc2c(cc1OC)C(O)C1c3c(cc(OC)c(OC)c3-2)CCN1C (configuration not stated) | – | – | 12.7 | 0 | 78.3 | 21.8 | – | – | – | 52.6
COc1cc2c(cc1O)C[C@H]1c3c(cc(OC)c(OC)c3-2)CC[N+]1(C)C.[I-] | – | – | 81.3 | 82.7 | 87.6 | 88.1 | – | – | – | –
COc1c(O)ccc2c1-c1c(OC)c(O)cc3c1[C@H](C2)NCC3.Cl | 168 | – | 0 | 4 | 10.5 | 0 | – | – | – | –
Br.COc1c(O)ccc2c1-c1c3c(cc4c1[C@H](C2)NCC4)OCO3 | – | – | 0 | 91.6 | 91.8 | 60 | – | – | – | –
COc1ccc2c(c1OC)-c1c3c(cc4c1[C@H](C2)[N+](C)(C)CC4)OCO3.[I-] | – | – | 77.6 | 83.9 | 88.6 | 89 | – | – | – | –
